According to PubChem BioAssay (NCI):
Several values for one entry are separate records, joined by “and”; a condition that tells them apart may be missing. Equal entries are not always repeated.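 Growth conditions: 96-well plates. Treatment: test compound, 48 hours, 5 concentrations. Analysis: linear interpolation between bracketing concentrations; unreached endpoints set to highest concentration. GI50: concentration for 50% inhibition of growth. TGI is the concentration that stops growth completely.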

Legend:
Assay in all cases: NCI-60 cell line screen, 48 h
[1] = system: HOP-62 NSCLC
[2] = system: OVCAR-8 ovarian
[3] = system: A549 NSCLC
[4] = system: HCC-2998 colon
[5] = system: NCI-H460 lung
[6] = system: CCRF-CEM leukemia
[7] = system: COLO 205 colon
[8] = system: SK-OV-3 ovarian
[9] = system: SR leukemia
[10] = system: HCT-15 colon

Structure (SMILES): O=[N+]([O-])c1ccc(C2CC(c3ccccc3)=Nc3ccccc3S2)cc1 (stereo not drawn)
- GI50 [1]: 97.1 µM
- TGI [1]: > 100 µM
- GI50 [2]: 52.4 µM
- TGI [2]: > 100 µM
- GI50 [3]: > 100 µM
- TGI [3]: > 100 µM
- GI50 [4]: > 100 µM
- TGI [4]: > 100 µM
- GI50 [5]: > 100 µM
- TGI [5]: > 100 µM
- GI50 [6]: 4.66 µM
- TGI [6]: > 100 µM
- GI50 [7]: > 100 µM
- TGI [7]: > 100 µM
- GI50 [8]: > 100 µM
- TGI [8]: > 100 µM
- GI50 [9]: 3.59 µM
- TGI [9]: > 100 µM
- GI50 [10]: 8.03 µM
- TGI [10]: > 100 µM

Structure (SMILES): N=N/C(=C\c1c(O)[nH]c2ccccc12)c1ccccc1
- TGI [1]: 99.8 µM
- TGI [2]: > 57.5 µM
- TGI [3]: > 100 µM
- TGI [4]: 63 µM
- TGI [5]: > 100 µM
- TGI [6]: 25.2 µM
- TGI [7]: 54.6 µM
- TGI [8]: > 90.2 µM
- TGI [9]: 97.5 µM
- TGI [10]: > 66.4 µM

Structure (SMILES): CC(C)(C)[Si](C)(C)OC1[C@@H](O[Si](C)(C)C(C)(C)C)[C@@H](CNC(=O)NC(=O)CF)O[C@H]1n1cnc2c(NC(=O)Nc3ccccc3)ncnc21 (stereo partly drawn)
- GI50 [1]: 9.31 µM
- TGI [1]: > 50 µM
- GI50 [2]: 12.8 µM
- TGI [2]: > 50 µM
- GI50 [3]: 6.92 µM
- TGI [3]: > 50 µM
- GI50 [4]: 9.23 µM
- TGI [4]: 31.3 µM
- GI50 [5]: 8.32 µM
- TGI [5]: > 50 µM
- GI50 [6]: 11.6 µM
- TGI [6]: > 50 µM
- GI50 [7]: 7.66 µM
- TGI [7]: 18.4 µM
- GI50 [8]: > 50 µM
- TGI [8]: > 50 µM
- GI50 [9]: 4.5 µM
- TGI [9]: 32 µM
- GI50 [10]: 11.2 µM
- TGI [10]: > 50 µM

Structure (SMILES): COC(=O)C1=COC(C)C2CN3CCc4c([nH]c5cc(OC)c(OC)cc45)C3CC12 (stereo not drawn)
- TGI [1]: > 100 µM
- GI50 [2]: > 100 µM and 45.1 µM
- TGI [2]: > 100 µM
- TGI [3]: > 100 µM
- TGI [4]: > 100 µM
- GI50 [5]: 67.1 µM and 22.4 µM
- TGI [5]: > 100 µM
- GI50 [6]: 41.7 µM and 13.6 µM
- TGI [6]: > 100 µM
- TGI [7]: > 100 µM and 86.6 µM
- TGI [8]: > 100 µM
- TGI [9]: > 100 µM
- TGI [10]: > 100 µM

Structure (SMILES): CC1=CCCC2C1(C)CCC(C)C2(C)Cc1cc(O)ccc1O (stereo not drawn)
- GI50 [1]: 15.2 µM
- TGI [1]: 28.9 µM and 35.7 µM
- TGI [2]: 16.7 µM and 17.7 µM
- GI50 [3]: 7.14 µM
- TGI [3]: 20.5 µM and 21.6 µM
- GI50 [4]: 15.6 µM
- TGI [4]: 30 µM and 24.6 µM
- GI50 [5]: 7.19 µM
- TGI [5]: 28.9 µM and 20.5 µM
- GI50 [6]: 3.76 µM
- TGI [6]: > 37.1 µM and 5.88 µM
- TGI [7]: 34.9 µM and 32.1 µM
- TGI [8]: 29.9 µM and 39.1 µM
- TGI [9]: 24.7 µM
- GI50 [10]: 6.04 µM
- TGI [10]: 25.8 µM and 23.7 µM

Structure (SMILES): Cc1nc(-c2nc(-c3ccc(OC(F)(F)F)cc3)no2)nn1Cc1cccc(N2CCC(S(C)(=O)=O)CC2)c1
- GI50 [1]: > 33.1 µM
- TGI [1]: > 100 µM
- GI50 [2]: 3.86 µM
- TGI [2]: > 100 µM
- GI50 [3]: 4.62 µM
- TGI [3]: > 100 µM
- GI50 [4]: > 40.6 µM
- TGI [4]: > 100 µM
- GI50 [5]: 5.95 µM
- TGI [5]: > 100 µM
- GI50 [6]: 7.41 µM
- TGI [6]: > 100 µM
- GI50 [7]: 11.1 µM
- TGI [7]: > 100 µM
- GI50 [8]: 16.3 µM
- TGI [8]: 89.8 µM
- GI50 [9]: 0.397 µM
- TGI [9]: 97.9 µM
- GI50 [10]: > 21.7 µM
- TGI [10]: > 100 µM

Structure (SMILES): CONC(C)=O
- TGI [1]: > 100 µM
- TGI [2]: > 100 µM
- TGI [3]: > 100 µM
- TGI [4]: > 100 µM
- TGI [5]: > 100 µM
- TGI [6]: > 100 µM
- TGI [7]: > 100 µM
- TGI [8]: > 100 µM
- TGI [9]: > 100 µM
- TGI [10]: > 100 µM

Structure (SMILES): N#Cc1c(N2CCOCC2)nc(=S)[nH]c1-c1ccccc1
- GI50 [1]: 7.93 µM
- TGI [1]: 68.1 µM
- GI50 [2]: 39.2 µM
- TGI [2]: > 100 µM
- GI50 [3]: 21.3 µM
- TGI [3]: > 100 µM
- GI50 [4]: 77.2 µM
- TGI [4]: > 100 µM
- GI50 [5]: 9.57 µM
- TGI [5]: > 100 µM
- GI50 [6]: 30.9 µM
- TGI [6]: > 100 µM
- GI50 [7]: 19 µM
- TGI [7]: > 100 µM
- GI50 [8]: 8.48 µM
- TGI [8]: 98.6 µM
- GI50 [9]: 29 µM
- TGI [9]: > 100 µM
- GI50 [10]: 24.9 µM
- TGI [10]: > 100 µM

Structure (SMILES): CC1(Br)CC2OC3(Br)C=CC(C)(O)C2(CC1=O)C3(C)C (stereo not drawn)
- TGI [1]: > 100 µM
- TGI [2]: > 100 µM
- TGI [3]: > 100 µM
- TGI [4]: > 100 µM
- TGI [5]: > 100 µM
- TGI [6]: > 36 µM
- TGI [7]: > 100 µM
- TGI [8]: > 100 µM
- TGI [9]: > 100 µM
- TGI [10]: > 100 µM

Structure (SMILES): O=[N+]([O-])c1ccc(C2=Nn3c(nnc3-c3ccc(Cl)cc3)SC2)o1
- TGI [1]: 24.9 µM
- TGI [2]: 26.3 µM
- TGI [3]: 48.6 µM
- TGI [4]: 5.72 µM
- TGI [5]: 17.7 µM
- TGI [6]: 7.54 µM
- TGI [7]: 4.31 µM
- TGI [8]: 34.1 µM
- TGI [9]: 1.16 µM
- TGI [10]: 5.99 µM

Structure (SMILES): O=C(O)C(C(=O)O)P(=S)(S)c1ccccc1 (stereo not drawn)
- TGI [1]: > 100 µM
- TGI [2]: > 100 µM
- TGI [3]: > 100 µM
- TGI [4]: > 100 µM
- TGI [5]: > 100 µM
- TGI [6]: > 100 µM
- TGI [7]: > 100 µM
- TGI [8]: > 100 µM
- TGI [9]: > 100 µM
- TGI [10]: > 100 µM

Structure (SMILES): C[C@@H](NC(=O)/C(C#N)=C/c1ccc([N+](=O)[O-])cc1)c1ccccc1
- GI50 [1]: 2.88 µM
- TGI [1]: 8.91 µM
- GI50 [2]: 2.87 µM
- TGI [2]: 8.05 µM
- GI50 [3]: 2.94 µM
- TGI [3]: 8.37 µM
- GI50 [4]: 1.87 µM
- TGI [4]: 3.53 µM
- GI50 [5]: 2.58 µM
- TGI [5]: 6.95 µM
- GI50 [6]: 2.56 µM
- TGI [6]: > 38.9 µM
- GI50 [7]: 2 µM
- TGI [7]: 3.71 µM
- GI50 [8]: 8.33 µM
- TGI [8]: 23.3 µM
- GI50 [9]: 1.73 µM
- TGI [9]: 5.55 µM
- GI50 [10]: 1.85 µM
- TGI [10]: 3.88 µM

Structure (SMILES): O=C1NC2C(=CC(O)C(O)C2O)c2cc3c(cc21)OCO3 (stereo not drawn)
- GI50 [1]: 0.277 µM and 0.191 µM
- TGI [1]: 1.82 µM and 1.84 µM
- GI50 [2]: 0.344 µM and 0.171 µM
- TGI [2]: 2.25 µM and 1.72 µM
- GI50 [3]: 0.462 µM and 0.273 µM
- TGI [3]: 6.87 µM and 4.1 µM
- GI50 [4]: 0.179 µM
- TGI [4]: 1.38 µM and 1.67 µM
- GI50 [5]: 0.251 µM and 0.147 µM
- TGI [5]: 2.01 µM and 1.3 µM
- GI50 [6]: 0.154 µM and 0.115 µM
- TGI [6]: 0.875 µM and 3.55 µM
- GI50 [7]: 0.074 µM
- TGI [7]: 0.595 µM and 0.249 µM and 0.579 µM
- GI50 [8]: 0.232 µM and 0.272 µM
- TGI [8]: 7.09 µM and 4.31 µM
- TGI [9]: 0.566 µM
- GI50 [10]: 0.406 µM and 0.216 µM
- TGI [10]: 9.97 µM and 6.41 µM

Structure (SMILES): CN(C)CCCCC(C(=O)CBr)(c1ccccc1)c1ccccc1
- GI50 [1]: 8.06 µM
- TGI [1]: 23.6 µM
- GI50 [2]: 2.52 µM
- TGI [2]: 8.48 µM
- GI50 [3]: 4.93 µM
- TGI [3]: 18.8 µM
- GI50 [4]: 2.44 µM
- TGI [4]: 5.55 µM
- GI50 [5]: 6.36 µM
- TGI [5]: 23 µM
- GI50 [6]: 2.06 µM
- TGI [6]: 6.45 µM
- GI50 [7]: 1.78 µM
- TGI [7]: 3.95 µM
- GI50 [8]: 6.63 µM
- TGI [8]: 19.4 µM
- GI50 [9]: 2.12 µM
- TGI [9]: 7.02 µM
- GI50 [10]: 1.64 µM
- TGI [10]: 3.37 µM

Structure (SMILES): C=C1C(=O)O[C@H]2[C@H]1CC/C(C=Nc1c(N)cc(C(F)(F)F)cc1C(F)(F)F)=C\CC[C@@]1(C)O[C@@H]21
- GI50 [1]: 2 µM
- TGI [1]: 4.19 µM
- GI50 [2]: 1.79 µM
- TGI [2]: 9.85 µM
- GI50 [3]: 1.95 µM
- TGI [3]: 3.74 µM
- GI50 [4]: 1.69 µM
- TGI [4]: 3.3 µM
- GI50 [5]: 1.53 µM
- TGI [5]: 3.38 µM
- GI50 [6]: 0.55 µM
- TGI [6]: > 100 µM
- GI50 [7]: 1.35 µM
- TGI [7]: 3.04 µM
- GI50 [8]: 3.26 µM
- TGI [8]: 11.5 µM
- GI50 [9]: 0.567 µM
- TGI [9]: 5.17 µM
- GI50 [10]: 1.05 µM
- TGI [10]: 3.73 µM
